The record followed here is US20180104264A1, “Method for Preparing Lyophilized Organic Solvent-Free Cyclophosphamide” (KOREA UNITED PHARM. INC., priority 2016, published 2018).

This data set in a line: Measurement of porosity (KOPTRI). Type of data set: physicochemical. An excerpt: Porosity measurement for the samples prepared by the present applicant was requested from the Korea Polymer Testing & Research Institute (KOPTRI), an authorized international testing agency.

For the compound `O=P1(N(CCCl)CCCl)NCCCO1` (stereo not drawn) [Comparison 4, 2-[bis(2-chloroethyl)amino]tetrahydro-2H-1,3,2-oxazaphosphorin-2-oxide], the Apparent density was found to be 1.31 g/mL and the Porosity is 5.24%. The compound further yielded an Average diameter (pore size) of 0.02 μm.
